# Experiments:
# [1] = test system: ragweed; assay: Test C preemergence; format: in vivo, Ambrosia artemisiifolia
# How it was run: (§1)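 Visual injury score, 0–100 (100 = complete control), taken 10 days after treatment relative to untreated controls. Pre: directed spray onto soil over sown seeds. Post: foliar spray at one- to two-leaf stage, 2–10 cm. Solvent/surfactant formulation; loam–sand soil; greenhouse.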
# [2] = test system: ragweed; assay: Test C postemergence; format: in vivo, Ambrosia artemisiifolia; settings: 10 days, 0 to 100 scale (0 no effect, 100 complete control)
# How it was run: as §1
# [3] = test system: kochia; assay: Test C postemergence; format: in vivo, Bassia scoparia; settings: 10 days, 0 to 100 scale (0 no effect, 100 complete control)
# How it was run: as §1
# [4] = test system: barnyardgrass; assay: Test C postemergence; format: in vivo, Echinochloa crusgalli; settings: 10 days, 0 to 100 scale (0 no effect, 100 complete control)
# How it was run: as §1
# [5] = test system: oat, wild; assay: Test C preemergence; format: in vivo, Avena fatua
# How it was run: as §1
# [6] = test system: corn; assay: Test C postemergence; format: in vivo, Zea mays; settings: 10 days, 0 to 100 scale (0 no effect, 100 complete control)
# How it was run: as §1
# [7] = test system: ryegrass, Italian; assay: Test C postemergence; format: in vivo, Lolium multiflorum; settings: 10 days, 0 to 100 scale (0 no effect, 100 complete control)
# How it was run: as §1
# [8] = test system: barnyardgrass; assay: Test C preemergence; format: in vivo, Echinochloa crusgalli
# How it was run: as §1
# [9] = test system: green foxtail; assay: Test C postemergence; format: in vivo, Setaria viridis; settings: 10 days, 0 to 100 scale (0 no effect, 100 complete control)
# How it was run: as §1
# [10] = test system: green foxtail; assay: Test C preemergence; format: in vivo, Setaria viridis
# How it was run: as §1
# [11] = test system: oat, wild; assay: Test C postemergence; format: in vivo, Avena fatua; settings: 10 days, 0 to 100 scale (0 no effect, 100 complete control)
# How it was run: as §1
# [12] = test system: blackgrass; assay: Test C preemergence; format: in vivo, Alopecurus myosuroides
# How it was run: as §1
# [13] = test system: wheat; assay: Test C postemergence; format: in vivo, Triticum aestivum; settings: 10 days, 0 to 100 scale (0 no effect, 100 complete control)
# How it was run: as §1
# [14] = test system: rice; assay: Test D flooded paddy test; format: in vivo, Oryza sativa; settings: 250 g ai/ha, applied to paddy water, visual rating after 13 to 14 days, scale 0 to 100 (0 no effect, 100 complete control)
# How it was run: (§2)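 Compounds go straight into paddy water over 2-leaf plants in pots flooded to 3 cm. Greenhouse holding lasts 13 to 14 days. Injury is scored by eye against controls from 0 (none) to 100 (complete control).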
# [15] = test system: pigweed, palmer; assay: Test C preemergence; format: in vivo, Amaranthus palmeri
# How it was run: as §1
# [16] = test system: soybean; assay: Test C preemergence; format: in vivo, Glycine max
# How it was run: as §1
# [17] = test system: wheat; assay: Test C preemergence; format: in vivo, Triticum aestivum
# How it was run: as §1
# [18] = test system: sedge, umbrella; assay: Test D flooded paddy test; format: in vivo, Cyperus difformis; settings: 250 g ai/ha, applied to paddy water, visual rating after 13 to 14 days, scale 0 to 100 (0 no effect, 100 complete control)
# How it was run: as §2
# [19] = test system: galium; assay: Test C postemergence; format: in vivo, Galium aparine; settings: 10 days, 0 to 100 scale (0 no effect, 100 complete control)
# How it was run: as §1
# [20] = test system: horseweed; assay: Test C postemergence; format: in vivo, Erigeron canadensis; settings: 10 days, 0 to 100 scale (0 no effect, 100 complete control)
# How it was run: as §1
# [21] = test system: blackgrass; assay: Test C postemergence; format: in vivo, Alopecurus myosuroides; settings: 10 days, 0 to 100 scale (0 no effect, 100 complete control)
# How it was run: as §1
# [22] = test system: kochia; assay: Test C preemergence; format: in vivo, Bassia scoparia
# How it was run: as §1
# [23] = test system: soybean; assay: Test C postemergence; format: in vivo, Glycine max; settings: 10 days, 0 to 100 scale (0 no effect, 100 complete control)
# How it was run: as §1
# [24] = test system: pigweed, palmer; assay: Test C postemergence; format: in vivo, Amaranthus palmeri; settings: 10 days, 0 to 100 scale (0 no effect, 100 complete control)
# How it was run: as §1
# [25] = test system: corn; assay: Test C preemergence; format: in vivo, Zea mays
# How it was run: as §1
# [26] = test system: ducksalad; assay: Test D flooded paddy test; format: in vivo, Heteranthera limosa; settings: 250 g ai/ha, applied to paddy water, visual rating after 13 to 14 days, scale 0 to 100 (0 no effect, 100 complete control)
# How it was run: as §2
# [27] = test system: barnyardgrass; assay: Test D flooded paddy test; format: in vivo, Echinochloa crus-galli; settings: 250 g ai/ha, applied to paddy water, visual rating after 13 to 14 days, scale 0 to 100 (0 no effect, 100 complete control)
# How it was run: as §2
# [28] = test system: ryegrass, Italian; assay: Test C preemergence; format: in vivo, Lolium multiflorum
# How it was run: as §1
# [29] = 500 g ai/ha, preemergence, 0 to 100 scale (0 no effect, 100 complete control)
# [30] = Preemergence, 125 g ai/ha, 0 to 100 scale, 0 no effect, 100 complete control
smiles,measurement,setting,value
COCc1ncn(-c2ccc(C)c(C(=O)N3C[C@H](C)Oc4c(Cl)cccc43)c2)n1 [Compound 357],Ragweed plant response rating,[1]; [29],60
same,"Plant response rating, Ragweed",[1]; [30],10
same,"Plant response rating, Ragweed","[2]; 500 g ai/ha, postemergence",60
same,"Plant response rating, Ragweed","[2]; Postemergence, 125 g ai/ha",20
same,"Plant response rating, Kochia","[3]; 500 g ai/ha, postemergence",70
same,"Plant response rating, Kochia","[3]; Postemergence, 125 g ai/ha",50
same,"Plant response rating, Barnyardgrass","[4]; 500 g ai/ha, postemergence",100
same,"Plant response rating, Barnyardgrass","[4]; Postemergence, 125 g ai/ha",50
same,"Oat, Wild plant response rating",[5]; [29],90
same,"Plant response rating, Oat, Wild",[5]; [30],60
same,"Plant response rating, Corn","[6]; 500 g ai/ha, postemergence",80
same,"Plant response rating, Corn","[6]; Postemergence, 125 g ai/ha",40
same,"Plant response rating, Ryegrass, Italian","[7]; 500 g ai/ha, postemergence",100
same,"Plant response rating, Ryegrass, Italian","[7]; Postemergence, 125 g ai/ha",50
same,Barnyardgrass plant response rating,[8]; [29],100
same,"Plant response rating, Barnyardgrass",[8]; [30],80
same,"Plant response rating, Foxtail, Green","[9]; 500 g ai/ha, postemergence",90
same,"Plant response rating, Foxtail, Green","[9]; Postemergence, 125 g ai/ha",30
same,"Foxtail, Green plant response rating",[10]; [29],100
same,"Plant response rating, Foxtail, Green",[10]; [30],100
same,"Plant response rating, Oat, Wild","[11]; 500 g ai/ha, postemergence",90
same,"Plant response rating, Oat, Wild","[11]; Postemergence, 125 g ai/ha",30
same,Blackgrass plant response rating,[12]; [29],100
same,"Plant response rating, Blackgrass",[12]; [30],80
same,"Plant response rating, Wheat","[13]; 500 g ai/ha, postemergence",80
same,"Plant response rating, Wheat","[13]; Postemergence, 125 g ai/ha",20
same,"Plant response rating, Rice (Flood)",[14],0
same,"Pigweed, Palmer plant response rating",[15]; [29],100
same,"Plant response rating, Pigweed, Palmer",[15]; [30],90
same,Soybean plant response rating,[16]; [29],100
same,"Plant response rating, Soybean",[16]; [30],100
same,Wheat plant response rating,[17]; [29],70
same,"Plant response rating, Wheat",[17]; [30],0
same,"Plant response rating, Sedge, Umbrella (Flood)",[18],90
same,"Plant response rating, Galium","[19]; 500 g ai/ha, postemergence",100
same,"Plant response rating, Galium","[19]; Postemergence, 125 g ai/ha",100
same,"Plant response rating, Horseweed","[20]; 500 g ai/ha, postemergence",80
same,"Plant response rating, Horseweed","[20]; Postemergence, 125 g ai/ha",60
same,"Plant response rating, Blackgrass","[21]; 500 g ai/ha, postemergence",100
same,"Plant response rating, Blackgrass","[21]; Postemergence, 125 g ai/ha",90
same,Kochia plant response rating,[22]; [29],90
same,"Plant response rating, Kochia",[22]; [30],50
same,"Plant response rating, Soybean","[23]; 500 g ai/ha, postemergence",100
same,"Plant response rating, Soybean","[23]; Postemergence, 125 g ai/ha",100
same,"Plant response rating, Pigweed, Palmer","[24]; 500 g ai/ha, postemergence",100
same,"Plant response rating, Pigweed, Palmer","[24]; Postemergence, 125 g ai/ha",50
same,Corn plant response rating,[25]; [29],20
same,"Plant response rating, Corn",[25]; [30],10
same,"Plant response rating, Ducksalad (Flood)",[26],45
same,"Plant response rating, Barnyardgrass (Flood)",[27],10
same,"Ryegrass, Italian plant response rating",[28]; [29],100
same,"Plant response rating, Ryegrass, Italian",[28]; [30],100
